Bounds are passed on as bounds.

In general, melting point refers to the temperature, or range, at which the solid turns liquid. The compound `c1ccc(Cc2nc(COc3ccc(CCCn4ccnc4)cc3)co2)cc1` came in with a melting point of 61 to 62 °C.
As for `COc1ccc2c(c1)C(=O)CC1C2C(OC(C)=O)CC2(C)C(OC(C)=O)CCC12` (centres undefined), the figure is 199 to 200 °C; as for `C#CCn1nnc2cc3c(cc2c1=O)OC1CCCN1C3=O` (centres undefined), 186 to 188 °C; as for `CC(=O)NN(C(C)=O)[C@@H]1c2cc(C#N)ccc2OC(C)(C)[C@H]1O` (relative stereo), 206 to 207 °C.
The compound `CCCCCCCCCN(c1ccccc1)P(=O)(O)O` showed a melting point of 64 to 65 °C.
To `CS(=O)(=O)c1c(C(N)=NO)nn(-c2c(Cl)cc(C(F)(F)F)cc2Cl)c1N` belongs 132 to 134 °C; to `CSc1ccc(-c2cc(C(=O)O)nn2-c2ccc(F)cc2)cc1`, 199 to 200 °C.
As for `COc1nsc(Cl)c1Cl`, the melting point lay within 46 to 48 °C.
To `CCOC(=O)C(C)(C)Oc1ccc(-c2ccc(CCNC(=O)c3cccc(OC)c3OC)cc2)cc1` belongs below 20 °C.
As for `CN1CCc2cc(Cl)c(N)cc2[C@@H](c2ccccc2)C1`, the figure is 68 to 70 °C; as for `Cc1sc(C(=O)O)c2c1-c1nn(Cc3ccccc3)cc1CC2`, 231 to 232 °C; as for `CCC12CCC(=O)C=C1c1c(cc(OCC(=O)OCC(C)=O)c(Cl)c1Cl)C2` (centres undefined), 153 to 155 °C.
To `COc1cc(N)c(Cl)cc1C(=O)NC1CCN2CCCC2C1` (centres undefined) belongs 193 to 194 °C; to `O=C(NC(=O)c1c(F)cccc1F)Nc1cc(Cl)c(OC(F)(F)C(F)Cl)cc1Cl` (centres undefined), 177 to 179 °C; to `C/C=C(\c1ccccc1)c1cc2cc(OC)ccc2[nH]1`, 128 to 130 °C.
For the compound `O=S(c1cc(Br)c(-c2ccc(Cl)cc2)[nH]1)C(F)(F)F` (centres undefined), the melting point lay in the range of 177 to 179 °C.
As for `Cc1ccc(-c2ccc3c(c2)C=C(C(=O)Nc2ccc(CN(C)C4CCOCC4)cc2)CC(C)O3)cc1` (centres undefined), the figure is 170 to 171 °C; as for `CCCS(=O)(=O)N[C@H](C(=O)NCCc1ccc(OCC#Cc2ccc(Cl)cc2)c(OC)c1)C(C)C`, 131 to 133 °C; as for `Cn1cc(-c2ccccc2)c(=O)c(S(=O)(=O)c2ccccc2)c1`, 218 to 220 °C.
As for `COc1ccc(C(C#N)C(C)C)cc1OC` (centres undefined), the figure is 45.5 to 49 °C.
`CCc1c2c(nn1-c1ccccc1)c(=O)[nH]c1ccccc12`: the melting point was 331 to 334 °C.
In turn, `COC(=O)c1ccc(NC(=O)OCc2ccccc2)c(Cl)c1` returned a melting point of 108 °C.
To `COc1ccc(CN(C)CCCCc2ccc(NC(=O)c3cccc4c(=O)c5ccccc5[nH]c34)cc2)cc1OC` belongs 140 °C.
To `Cc1ccc(S(=O)(=O)N[C@@H]2CCCC[C@H]2OCC(=O)O)cc1` (relative stereo) belongs 56 to 58 °C; to `CC(C)(C)C(=O)c1ccc(C(=O)NC(=O)c2ccc(C(=O)C(C)(C)C)cc2)cc1`, 131 to 132 °C.
To `CN(CCNc1ccn2ncc(-c3cccs3)c2n1)C(=O)OC(C)(C)C` belongs 140 to 141 °C; to `Cc1ccc(OCc2ccccc2[N+](=O)[O-])c(C=O)c1`, 124 °C.
`O=C(O)C(Oc1ccc(Cl)cc1)c1ccc(Oc2ccc(Cl)cc2)cc1` (centres undefined) returned a melting point of 141 to 142 °C.
As for `Clc1ccc([C@H]2CC[C@H](CBr)CC2)cc1`, the figure is 36 to 38 °C.
As for `CC(=O)C1=C(O)C(C(=O)C=Cc2ccc(C)cc2)C(=O)OC1=O` (centres undefined), the figure is 188 to 190 °C; as for `CCOC(=O)C(Cc1ccccc1)(C(=O)Nc1ccc(Cl)cc1)c1ccccc1` (centres undefined), 83 to 85 °C.
To `CCCCOc1ccc(Oc2cc(=O)c3c(OCCCC)c(OC)c(OCCCC)cc3o2)cc1` belongs 62 to 63 °C; to `Nc1ncc(Cc2ccccc2)cc1Br`, 110 to 111 °C.
The compound `O=C(Nc1cc(Cl)ccc1N1CCCCC1)c1cnn2cc(O)cnc12` yielded a melting point above 300 °C.
To `FC(F)(F)C(F)(F)c1nc(-c2ccc(OCCCn3ccnc3)cc2)no1` belongs 60.5 to 61.5 °C; to `CC1(C)C(=O)Oc2ccc3ccc(C=O)cc3c21`, 135 to 137 °C; to `CC(C)C(C)CNC(=O)c1ccc2c(c1)N(C(C)CN1CCCC1)c1ccccc1S2` (centres undefined), 138 °C.
For the compound `COCCNC(=O)c1cc(-c2ccccc2)c(=O)[nH]c1-c1c(Cl)cccc1C#N`, the melting point lay in the range of 252 to 255 °C.
To `Cc1ccnc2c([N+](=O)[O-])cc(Cc3cnc(N)nc3N)cc12` belongs 256 to 258 °C; to `O=C(CCCC(=O)Oc1cc(O)cc(O)c1)Oc1cc(O)cc(O)c1`, 205 to 208 °C; to `CN1C(=S)N(c2ccc(C#N)c(C(F)(F)F)c2)C(=N)C12CCCC2`, 165 to 166 °C.
To `Cn1ncc(C(=O)O)c1C(=O)Nc1ccn2nc(Br)nc2c1` belongs above 250 °C; to `COC(=O)c1cn2c3c(c(F)c(F)cc3c1=O)CC(C)N2C` (centres undefined), 184 to 185 °C; to `O=C1OC(c2ccccc2)(c2ccccc2)C2CN(S(=O)(=O)/C=C/c3ccc(F)cc3)CCN12` (centres undefined), 248 to 249 °C.
To `CCCCCCOc1c(C=Cc2ccc(Br)cc2)ccc2c(OCCCCCC)c(C=Cc3ccc(Br)cc3)ccc12` belongs 170 to 172 °C.
`O=CCOc1ccc(Oc2ccccc2)cc1` returned a melting point of 79 to 81 °C.
To `Cc1cc2c(s1)Nc1ccccc1NC2=S` belongs 259 to 260 °C.
To `COCCNC(=O)COC1c2ccccc2C(=O)N1c1ccc2ccc(OC)nc2n1` (centres undefined) belongs 172 °C.
As for `N#Cc1cc(Br)c(C(=O)CCl)s1`, the figure is 126 to 128 °C.
Take `O=C(NS(=O)(=O)c1ccc(Cl)cc1)N1CC(c2ccccc2)C(c2ccc(Cl)cc2)=N1` (centres undefined): the melting point lay in the range of 211 to 214 °C.
`Cc1c(-c2ccc(OCc3ccccc3)c(F)c2)[nH]c2ccc(OCc3ccccc3)cc12`: the melting point lay in the range of 135 to 137 °C.
As for `CNC(=O)CCC(=O)c1ccc(OCC2CO2)cc1` (centres undefined), the figure is 133 to 140 °C; as for `CCOC(=O)c1c(C)noc1C(=O)O`, 54 to 58 °C.
With `Cc1ccccc1P(=NC(=O)OC1CCOC1)(c1ccccc1)c1ccccc1` (centres undefined), the melting point fell in the range of 118 to 119 °C.
`O=C(NC1CCC(Oc2ccc(F)cc2)CC1)NC12CC3CC(CC(C3)C1)C2` (centres undefined): the melting point came out at 243 °C.
As for `CCOc1ccc(O)c2c1C(=O)N(CSc1nnnn1-c1ccccc1)S2(=O)=O`, the figure is 178 to 180 °C.
As for `O=C1NCCN1c1ccc(S(=O)(=O)Nc2ccc3c(c2)Cc2ccccc2-3)cc1`, the figure is 164 to 166 °C.
To `C#CCNC(=O)N1c2ccccc2-c2noc3c2C1CCC3` (centres undefined) belongs 220 °C; to `Cc1c(C(=O)N[C@H](C(=O)O)c2ccc(OCc3ccccc3)cc2)oc2cc(-c3ccc(Cl)cc3)ccc12`, 178 °C; to `CC(C)Cc1ccc(C(Nc2cccc(C(=O)n3cc(CCCC(=O)O)c4ccccc43)c2)c2ccc(CC(C)C)cc2)cc1`, 74.8 °C.
Regarding `CC(C)Oc1c(C(N)=O)oc2ccc(O)cc12`, the melting point lay in the range of 183 to 185 °C.
To `CCC(=Cc1ccccc1)C(=O)O` belongs 104 to 105 °C; to `C1=CC2OC1c1cc3c(cc12)OCO3`, 111 to 112 °C; to `O=C(Nc1ccc2[nH]ccc2c1)C(=O)N1CCC(Cc2ccc(F)cc2)CC1`, 80 to 82 °C.
To `CCCc1c(O)n2c3c(=O)n(C)c(=O)n(C)c3nc2n(Cc2ccccc2)c1=O` belongs 217 °C; to `O=C(c1cccc(O)c1)c1sc2cc(O)ccc2c1-c1ccccc1`, 202 °C.
On to `CC(C)(C)NC(=O)c1ccc(S(=O)(=O)N2C(=O)C(C)(c3ccccc3Cl)c3cc(OCC(F)(F)F)ccc32)cc1` (centres undefined), for which the melting point stood at 134 °C.
As for `COc1cc(COC2CCN(C(=O)c3ccc([N+](=O)[O-])cc3)CC2)cc(OC)c1OC`, the figure is 124 °C; as for `CCn1cc(C(=O)O)c(=O)c2cc(C)sc21`, 229 to 230 °C; as for `O=C(Nc1ccccc1)O[C@@H]1CN2CCC1CC2`, 129 to 130 °C.
To `CCCCCCCCCCCCCCCCOc1ccc(O)cc1` belongs 87 to 88 °C; to `CONS(=O)(=O)c1cccc(Cl)c1`, 72 to 74.5 °C; to `Cc1cc(-n2nn[nH]c2=O)c(Cl)cc1Cl`, 135 to 137 °C.
`CCOc1ccccc1COc1ccc2c(c1)C=C(C(=O)Nc1ccc(CN(C)C3CCOCC3)cc1)CCS2(=O)=O` returned a melting point of 211 to 214 °C.
To `CC(=O)NCCC1CCc2ccn3ncc(C)c3c21` (centres undefined) belongs 121 to 122 °C; to `CCCCCCCCCCNC(=O)N[C@H]1CCCNC(=O)C1`, 97 to 98 °C; to `O=S1(=O)c2cccc3cccc(c23)N1CCCN1CCN(c2ccccc2)CC1`, 126 °C.
Turning to `CCOC(=O)c1cn(N2CCOCC2)c2ccc(CN3CCOCC3)cc2c1=O`, the melting point was 209 to 211 °C.
As for `CCCCOS(C)(=O)=O`, the figure is 100 to 101 °C; as for `Cn1cc(-c2cccc(C(F)(F)F)c2)c(=O)c(-c2ccccc2C(F)(F)F)c1`, 135 to 138 °C.
As for `CCCCCCCCCCc1nnn(CC(=O)O)n1`, the figure is 83 to 86 °C; as for `CCOC(=O)c1cc(Br)cc(C(=O)OCC)n1`, 95 to 96 °C.
To `CCn1c2c(c3ccccc31)S(=O)(=O)N(C)C(C(=O)Nc1ccccc1)=C2O` belongs 268 °C; to `O=C(c1ccc(F)cc1)C1CCN(CCN(C(=O)c2ccc([N+](=O)[O-])cc2)c2ccccc2)CC1`, 178 to 180 °C; to `CN(CCN)C(=O)N1N=C2c3cc(F)ccc3OC[C@@H]2[C@@H]1c1ccccc1` (racemic), 113 °C.
Consider `CCOC(=O)c1cn(-c2ccc(F)c(OC)c2)c2c(Cl)c(F)c(F)cc2c1=O`, for which the melting point was in the range of 245 to 246 °C.
To `Fc1ccc(Oc2cnc3c(-c4ccccc4Cl)n[nH]c3n2)c(F)c1` belongs 240 to 242 °C; to `CC(C)(C)OC(=O)CCC1CC(O)C(=O)N1` (centres undefined), 94 to 95 °C; to `COC(=O)c1c(SC(C)C)c2cc(OC)ccc2n1C`, 93 to 95 °C.

The record behind these values is a melting point compilation (Tetko et al.; mined from patent text by program, amines drawn as free bases though some values may be those of a salt).
